Data published in US20250296971A1, “GASTRIC INHIBITORY PEPTIDE RECEPTOR LIGANDS” (priority 2021, published 2025).
Where two headings read alike, the source gives them in different places. One block for each compound: values may come before it. *1 amine or outer side, *2 acyl side, *3 side chain or, on linkers, in order; H or OH if unused. Where a SMILES comes first, the peptide text is derived from it. Bridges are numbered along the chain shown (N, C = ends). [ ]: non-standard residue; d: D form. The star is where a group is joined. X3 = O=C(O)CN1CCN(CC(=O)O)CCN(CC(=O)NCCCOCCOCCOCCCN*)CCN(CC(=O)O)CC1; NH(1-deoxy-D-glucityl) = OC[C@@H](O)[C@@H](O)[C@H](O)[C@@H](O)CN*; Trp(5-Cl) = N[C@@H](Cc1c[nH]c2ccc(Cl)cc12)C(=O)O; Pyridine(2,6-diCH2) = c1cc(C[*:1])nc(C[*:2])c1; mXylylene = c1cc(C[*:1])cc(C[*:2])c1; N(CH2CH2COOH)Gly = O=C(O)CCNCC(=O)O; Hyp = O=C(O)[C@@H]1C[C@@H](O)CN1; X1 = O=C(CN1CCC(N[*:1])CC1)[*:2]; Suc = O=C(CCC(=O)[*:2])[*:1]; Thp = NC1(C(=O)O)CCOCC1; Nleu = CC(C)CNCC(=O)O

Molecular target: T1, GIPR (CHO-K1-hGIPR cells) (Homo sapiens, UniProt P48546)
T1 construct: host or cells: CHO-K1
T1 sequence (P48546 22-466): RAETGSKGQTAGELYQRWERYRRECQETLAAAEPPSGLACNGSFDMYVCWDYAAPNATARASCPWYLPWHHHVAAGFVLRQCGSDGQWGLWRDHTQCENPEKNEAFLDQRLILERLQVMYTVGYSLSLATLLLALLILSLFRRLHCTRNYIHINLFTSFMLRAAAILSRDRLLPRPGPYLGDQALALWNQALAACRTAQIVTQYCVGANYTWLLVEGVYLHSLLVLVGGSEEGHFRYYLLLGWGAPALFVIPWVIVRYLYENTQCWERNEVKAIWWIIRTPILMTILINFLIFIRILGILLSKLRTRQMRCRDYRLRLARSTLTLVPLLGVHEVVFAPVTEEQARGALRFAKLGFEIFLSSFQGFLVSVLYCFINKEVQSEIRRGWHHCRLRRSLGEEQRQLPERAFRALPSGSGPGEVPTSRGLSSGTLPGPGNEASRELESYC
Experiment: FACS binding assay
Conditions: read-out: pIC50 Category (converted)
In short: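 Median fluorescence in the APC channel, measured on washed CHO-K1 cells overexpressing human GIPR, was fitted by four-parameter logistic regression against peptide concentration to yield EC50 or IC50 values. Secondary labelling used APC-streptavidin (1 μg/mL, 30 min, ice).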

[1] = competition with 20 nM GIP-057, 4° C., 1 hour
[2] = competition with 20 nM GIP-057, 4° C. for 1 hour

SMILES: CC[C@H](C)[C@@H]1NC(=O)[C@H](CC(C)C)NC(=O)C2(CCOCC2)NC(=O)[C@@H](NC(=O)[C@@H](CC(C)C)NC(=O)[C@H](CO)NC(=O)[C@@H]2C[C@@H](O)CN2C(=O)[C@H](Cc2c[nH]c3ccc(Cl)cc23)NC(=O)[C@H](Cc2c[nH]c3ccccc23)NC(=O)[C@H](CC(=O)O)NC(C)=O)CSCc2cccc(n2)CSC[C@@H](C(N)=O)NC1=O [GIP-384, Ac-Asp-Trp-5Clw-Hyp-Ser-leu-[Cys(2Lut)-Thp-Leu-Ile-Cys]-NH2] (Ac-DW[Trp(5-Cl)][Hyp]S[dL]C[Thp]LIC-NH2; linker 7-11 via Pyridine(2,6-diCH2))
IC50 [2]: < 10 nM

SMILES: CC[C@H](C)[C@@H]1NC(=O)[C@H](CC(C)C)NC(=O)C2(CCOCC2)NC(=O)[C@@H](NC(=O)[C@@H](CC(C)C)NC(=O)[C@H](CCC(=O)O)NC(=O)[C@@H]2C[C@@H](O)CN2C(=O)[C@H](Cc2c[nH]c3ccc(Cl)cc23)NC(=O)[C@H](Cc2c[nH]c3ccccc23)NC(=O)[C@H](CC(=O)O)NC(C)=O)CSCc2cccc(n2)CSC[C@@H](C(=O)NC2CCN(CC(=O)N[C@H](CCC(=O)NC[C@H](O)[C@@H](O)[C@H](O)[C@H](O)CO)C(N)=O)CC2)NC1=O [GIP-177, Ac-Asp-Trp-5Clw-Hyp-Glu-leu-[Cys(2Lut)-Thp-Leu-Ile-Cys]-APAc-glu(AGLU)-NH2] (Ac-DW[Trp(5-Cl)][Hyp]E[dL]C[Thp]LIC[X1][dE](NH(1-deoxy-D-glucityl))-NH2; linker 7-11 via Pyridine(2,6-diCH2))
IC50 [1]: < 10 nM

SMILES: CC[C@H](C)[C@@H]1NC(=O)[C@H](CC(C)C)NC(=O)[C@H](C)NC(=O)[C@@H](NC(=O)[C@H](CC(C)C)NC(=O)[C@H](C)NC(=O)[C@@H]2CCCN2C(=O)[C@H](Cc2c[nH]c3ccccc23)NC(=O)[C@H](Cc2c[nH]c3ccccc23)NC(=O)[C@H](CC(=O)O)NC(=O)[C@H](Cc2ccc(O)cc2)NC(=O)[C@@H](N)CCSC)CSCc2cccc(c2)CSC[C@@H](C(N)=O)NC1=O [GIP-335] (H-MYDWWPALCALIC-NH2; linker 9-13 via mXylylene)
IC50 [2]: > 1000 nM

SMILES: CC[C@H](C)[C@@H]1NC(=O)[C@H](CC(C)C)NC(=O)[C@@H](C)NC(=O)[C@@H](NC(=O)[C@H](CC(C)C)NC(=O)[C@@H](CCC(=O)O)NC(=O)[C@@H]2CCCN2C(=O)[C@H](Cc2c[nH]c3ccccc23)NC(=O)[C@H](Cc2c[nH]c3ccccc23)NC(=O)[C@H](CC(=O)O)NC(=O)CCC(=O)NCCCOCCOCCOCCCNC(=O)CN2CCN(CC(=O)O)CCN(CC(=O)O)CCN(CC(=O)O)CC2)CSCc2cccc(c2)CSC[C@@H](C(N)=O)NC1=O [GIP-269, DOTA-Ttds-Asp-Trp-Trp-Pro-glu-Leu-[Cys(3MeBn)-ala-Leu-Ile-Cys]-NH2] ({X3-Suc}-DWWP[dE]LC[dA]LIC-NH2; linker 7-11 via mXylylene)
IC50 [2]: 100 to 794 nM

Continued, values first:

IC50 [1]: < 10 nM
SMILES: CC[C@H](C)[C@@H]1NC(=O)[C@H](CC(C)C)NC(=O)C2(CCOCC2)NC(=O)[C@@H](NC(=O)[C@@H](CC(C)C)NC(=O)[C@H](CCC(=O)O)NC(=O)CN(CC(C)C)C(=O)[C@H](Cc2c[nH]c3ccc(Cl)cc23)NC(=O)[C@H](Cc2c[nH]c3ccccc23)NC(=O)[C@H](CC(=O)O)NC(C)=O)CSCc2cccc(n2)CSC[C@@H](C(N)=O)NC1=O [GIP-184, Ac-Asp-Trp-5Clw-Nleu-Glu-leu-[Cys(2Lut)-Thp-Leu-Ile-Cys]-NH2] (Ac-DW[Trp(5-Cl)][Nleu]E[dL]C[Thp]LIC-NH2; linker 7-11 via Pyridine(2,6-diCH2))

IC50 [1]: < 10 nM
SMILES: CC[C@H](C)[C@@H]1NC(=O)[C@H](CC(C)C)NC(=O)C2(CCOCC2)NC(=O)[C@@H](NC(=O)[C@@H](CC(C)C)NC(=O)[C@H](CCC(=O)O)NC(=O)CN(CCC(=O)O)C(=O)[C@H](Cc2c[nH]c3ccc(Cl)cc23)NC(=O)[C@H](Cc2c[nH]c3ccccc23)NC(=O)[C@H](CC(=O)O)NC(C)=O)CSCc2cccc(n2)CSC[C@@H](C(N)=O)NC1=O [GIP-196, Ac-Asp-Trp-5Clw-Nglu-Glu-leu-[Cys(2Lut)-Thp-Leu-Ile-Cys]-NH2] (Ac-DW[Trp(5-Cl)][N(CH2CH2COOH)Gly]E[dL]C[Thp]LIC-NH2; linker 7-11 via Pyridine(2,6-diCH2))
